Experimental data: patent US6071709A, “Nerve growth factor/receptor complex” (The United States of America as represented by the …, priority 1992, dated 2000)

Experiments:
p140^prototrk = assay: NGF-dependent trk tyrosine phosphorylation in SY5Y cells; assay type: cell-based, human; conditions: 100 ng/ml NGF for 5 min
Excerpt: FIGS. 4A-B show NGF-dependent tyrosine phosphorylation of gp140trk in the human neuroblastoma cell lines LA-N-5, SY5Y, and dorsal root ganglia from mouse embryos. FIG. 4A, gp140trk was immunoprecipitated from untreated (-) or NGF treated (+) LA-N-5 cells (K. H. Sonnenfeld and D. N. Ishii, J. Neurosci. Res. 8:375-391 (1982)), SY5Y cells (K. H. Sonnenfeld and D. N. Ishii, (1982)), NR18 cells (M. A. Bothwell et al., Cell 21:857-866 (1980)), or PC12 cells. Immunoprecipitates were probed with P-tyr antibodies. The differences in trk protein mobilities are due to differences in glycosylation. FIG. 4B, Tyrosine phosphorylation of gp140trk in DRGs from 13.5 day or 14.5 day embryonic mice. DRGs were maintained in 100 ng/ml NGF for ≥10 min prior to lysis and immunoprecipitation with trk antibodies. trk immunoprecipitates were probed with P-tyr antibody. Tyrosine phosphorylated gp140trk from NGF-treated (+) PC12 cells or untreated (-) PC12 cells is shown for comparison. Samples were normalized for cell protein. Molecular weight markers in kDa are indicated.
Cell lines were treated with 100 ng/ml NGF for 5 min and gp140trk immunoprecipitated as in FIG. 1. DRGs were prepared by dissection for 13.5 or 14.5 day mouse embryos. […] Lysates were immunoprecipitated with trk antibody and the trk proteins were analyzed by antiphosphotyrosine immunoblots. […]

trk = assay: Growth factor stimulation of trk transfected 3T3 cells (pJM7-23), COS cell supernatants, Ptyr blot; assay type: cell-based; conditions: trk-expressing 3T3 cells (pJM7-23), 100 μl/ml NGF-COS cell supernatant, 10 minutes at 37° C.
Experimental: To study growth factor stimulation in cells transfected with trkB, NIH 3T3 trk transfected 3T3 (pJM7-23), trkB transfected 3T3 cells (pJM8-3) and non-transfected 3T3 cells (control cells) were exposed to media or media containing 100 μl/ml of NGF-COS cell supernatant, 100 μl/ml NT-3 COS cell supernatant, 5 μl/ml human platelet extract, or 50 μl/ml human platelet extract, for 10 minutes at 37° C. The plates were rinsed, lysed, and the trk or trkB was immunoprecipitated with rabbit antisera 443 and protein A Sepharose in the presence or absence of 10 μg/ml blocking peptide. After washing, the beads were denatured in sample buffer, the proteins were separated on a 7.5% gel and transferred to nitrocellulose. The blots were blocked with 2% BSA and probed with an antiphosphotyrosine monoclonal antibody (4G10). After binding of alkaline phosphate-conjugatedrabbit-anti-mouse antibody, the blots were washed and developed with BCIP and NBT.

gp140^prototrk = molecular target: T1, gp140^prototrk (Rattus norvegicus, UniProt P35739); conditions: PC12 cells, after NGF administration (Kaplan et al., 1991); cited from earlier work
T1 construct: tyrosine phosphorylation in response to NGF addition to PC12 cells; endogenous in cells; host or cells: PC12 cells
T1 sequence (P35739 33-799): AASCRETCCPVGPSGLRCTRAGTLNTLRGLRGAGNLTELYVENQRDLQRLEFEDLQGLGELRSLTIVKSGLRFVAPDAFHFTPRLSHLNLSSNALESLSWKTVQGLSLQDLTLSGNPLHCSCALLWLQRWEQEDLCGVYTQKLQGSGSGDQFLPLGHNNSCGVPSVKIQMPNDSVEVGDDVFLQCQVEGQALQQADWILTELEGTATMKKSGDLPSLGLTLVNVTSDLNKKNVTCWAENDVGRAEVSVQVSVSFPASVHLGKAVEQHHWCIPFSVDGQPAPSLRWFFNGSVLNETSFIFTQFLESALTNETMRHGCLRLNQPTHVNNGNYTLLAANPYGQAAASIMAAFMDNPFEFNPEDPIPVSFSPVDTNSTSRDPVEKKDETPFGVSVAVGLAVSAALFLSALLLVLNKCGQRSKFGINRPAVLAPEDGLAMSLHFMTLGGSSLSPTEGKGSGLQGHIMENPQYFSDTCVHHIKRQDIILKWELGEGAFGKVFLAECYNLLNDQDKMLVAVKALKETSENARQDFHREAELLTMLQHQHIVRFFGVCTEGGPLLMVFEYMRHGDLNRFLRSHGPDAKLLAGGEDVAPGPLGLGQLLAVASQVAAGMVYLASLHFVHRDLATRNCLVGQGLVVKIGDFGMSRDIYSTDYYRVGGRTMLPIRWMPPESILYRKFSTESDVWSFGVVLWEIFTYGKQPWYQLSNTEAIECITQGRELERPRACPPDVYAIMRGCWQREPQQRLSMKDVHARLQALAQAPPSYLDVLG

## NGF: neurotrophic polypeptide factor, nerve growth factor; ligand of trk proto-oncogene receptor
p140^prototrk
  p140^prototrk tyrosine phosphorylation: enhanced
trk
  stimulation of trk tyrosine phosphorylation: stimulated
gp140^prototrk
  time to appearance of trk tyrosine phosphorylation: 1 min
